The numbers were not newly measured in US20060153908A1, “Spherical pellet formulations” (priority 2002, published 2006), which cites them from elsewhere.

For this data set the following is noted: in water.

Structures can show the parent of a compound that is named as a salt.

As to `COc1cccc(C2(O)CCCCC2CN(C)C)c1` (single isomer, unassigned) [Tramadol hydrochloride, (1R,2R or 1S,2S)-2-[(dimethylamino)methyl]-1-(3-methoxyphenyl)-cyclohexanol], the water solubility entry is “very water-soluble”.
